Our source for the Activity and IC50 values is ChEMBL document CHEMBL5032490, “Neuroactive Type-A γ-Aminobutyric Acid Receptor Allosteric Modulator Steroids from the Hypobranchial Gland of Marine Mollusk, Conus geographus” (J Med Chem, 2021).

SMILES strings stand for the structures. Active and inactive are the calls of the source. The rule behind the calls is not given here.

As a reminder, the IC50 is the concentration that gives 50% inhibition.

Assay [1] in a line: Reduction of ATP and Kcl-induced increase in cytosolic Ca2+ ion concentration mouse […] assessed as neuron population at 10 uM measured after 1 hr by Fura2AM dye based fluorescence microscopic analysis. In kind it is functional. The arrangement: scale not given: the % may be the effect or the level left.
Assay [2] can be described thus: Induction of ATP and Kcl-induced increase in cytosolic Ca2+ ion concentration mouse peptidergic nociceptive DRG neuron assessed as neuron population at 10 uM measured after 1 hr by Fura2AM dye based fluorescence microscopic analysis. The class given is functional.
The nature of assay [3]: Reduction of ATP and Kcl-induced increase in cytosolic Ca2+ ion concentration mouse peptidergic nociceptive DRG neuron assessed as neuron population at 10 uM measured after 1 hr by Fura2AM dye based fluorescence microscopic analysis. In kind it is functional. The arrangement: scale not given: the % may be the effect or the level left.
Assay [4] is described as follows: Induction of cytosolic calcium ion concentration in mouse peptidergic nociceptive DRG neuron at 10 uM measured after 1 hr by Fura2AM dye based fluorescence microscopic analysis. In kind it is functional.
Assay [5] addresses T1, GABA-A receptor; alpha-3/beta-3/gamma-2 (Homo sapiens, UniProt P18507+P28472+P34903).
T1 sequence (P18507 whole entry): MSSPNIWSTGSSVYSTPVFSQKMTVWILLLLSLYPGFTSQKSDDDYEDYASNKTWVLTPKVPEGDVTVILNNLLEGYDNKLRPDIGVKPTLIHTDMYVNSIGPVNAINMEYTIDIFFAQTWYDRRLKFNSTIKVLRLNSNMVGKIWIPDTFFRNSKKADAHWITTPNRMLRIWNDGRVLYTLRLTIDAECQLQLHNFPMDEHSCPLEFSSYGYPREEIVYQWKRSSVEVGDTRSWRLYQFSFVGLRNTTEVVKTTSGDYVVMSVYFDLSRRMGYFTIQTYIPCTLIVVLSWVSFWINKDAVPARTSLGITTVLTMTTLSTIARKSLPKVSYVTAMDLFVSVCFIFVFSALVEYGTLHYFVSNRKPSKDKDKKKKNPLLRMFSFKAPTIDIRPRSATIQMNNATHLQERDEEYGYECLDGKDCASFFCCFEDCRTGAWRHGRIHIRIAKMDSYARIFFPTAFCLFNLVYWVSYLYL
T1 sequence (P28472 whole entry): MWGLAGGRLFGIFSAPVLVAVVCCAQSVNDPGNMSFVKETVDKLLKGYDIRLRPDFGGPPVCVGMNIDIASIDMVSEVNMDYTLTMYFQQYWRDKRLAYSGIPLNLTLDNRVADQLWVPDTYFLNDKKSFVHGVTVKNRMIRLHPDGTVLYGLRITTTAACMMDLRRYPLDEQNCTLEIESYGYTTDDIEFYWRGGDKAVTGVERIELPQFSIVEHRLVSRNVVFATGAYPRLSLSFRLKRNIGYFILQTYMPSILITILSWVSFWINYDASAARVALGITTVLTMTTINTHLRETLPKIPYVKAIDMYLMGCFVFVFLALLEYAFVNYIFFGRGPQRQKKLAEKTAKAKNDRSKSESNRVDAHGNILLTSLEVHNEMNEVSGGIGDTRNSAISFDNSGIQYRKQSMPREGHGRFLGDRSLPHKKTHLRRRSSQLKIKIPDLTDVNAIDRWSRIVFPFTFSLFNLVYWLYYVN
T1 sequence (P34903 whole entry): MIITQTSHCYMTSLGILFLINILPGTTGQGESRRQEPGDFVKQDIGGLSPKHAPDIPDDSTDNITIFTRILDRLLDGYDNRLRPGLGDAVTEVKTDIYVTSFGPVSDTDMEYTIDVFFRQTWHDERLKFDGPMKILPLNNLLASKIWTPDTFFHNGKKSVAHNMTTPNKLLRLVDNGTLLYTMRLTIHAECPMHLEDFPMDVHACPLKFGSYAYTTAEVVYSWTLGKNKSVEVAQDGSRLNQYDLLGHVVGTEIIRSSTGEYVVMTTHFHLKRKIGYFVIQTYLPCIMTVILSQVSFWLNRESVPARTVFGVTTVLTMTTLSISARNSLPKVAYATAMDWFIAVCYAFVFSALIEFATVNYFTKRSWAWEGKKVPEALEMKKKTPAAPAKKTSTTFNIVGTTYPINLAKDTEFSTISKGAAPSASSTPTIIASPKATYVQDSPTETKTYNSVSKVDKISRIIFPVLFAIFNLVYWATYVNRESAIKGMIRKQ
Nature of the assay: Negative allosteric modulation activity at human GABAA alpha3beta3gamma2 stably expressed in HEK cells by whole cell patch clamp method. The class given is cell-based. (In general: Patch clamp records ionic current or voltage across a cell membrane.)

Assay [6] has as its target T2, GABA-A receptor; alpha-5/beta-3/gamma-2 (Homo sapiens, UniProt P18507+P28472+P31644).
T2 sequence (P18507 whole entry): T1 sequence (P18507 whole entry)
T2 sequence (P28472 whole entry): T1 sequence (P28472 whole entry)
T2 sequence (P31644 whole entry): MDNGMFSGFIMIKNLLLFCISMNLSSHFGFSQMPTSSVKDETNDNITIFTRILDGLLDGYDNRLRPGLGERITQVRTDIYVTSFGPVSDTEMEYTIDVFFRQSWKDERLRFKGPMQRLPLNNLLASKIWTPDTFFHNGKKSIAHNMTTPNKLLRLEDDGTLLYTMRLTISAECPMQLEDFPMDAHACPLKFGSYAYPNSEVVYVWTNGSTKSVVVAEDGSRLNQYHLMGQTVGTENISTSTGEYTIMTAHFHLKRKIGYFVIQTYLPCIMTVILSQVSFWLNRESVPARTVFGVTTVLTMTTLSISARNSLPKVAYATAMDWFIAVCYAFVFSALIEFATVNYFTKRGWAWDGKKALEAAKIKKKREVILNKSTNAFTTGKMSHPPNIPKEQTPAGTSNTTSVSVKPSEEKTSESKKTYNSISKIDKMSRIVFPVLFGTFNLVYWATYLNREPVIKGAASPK
Put plainly: Negative allosteric modulation activity at human GABAA alpha5beta3gamma2 stably expressed in HEK cells by patch clamp method. The class given is cell-based.

The next assay concerns Neuron. Nature of the assay: Negative allosteric modulation of human GABA receptor expressed in mouse DRG neurons assessed as inhibition of 340 nM GABA-induced responses at 0.5 uM using nociceptor. As to conditions: filed as negative allosteric modulator. In kind it is tissue-based.
The subject of assay [7] is Mus musculus. Nature of the assay: Antinociceptive activity in mouse assessed as total number of responses at 2 to 50 mg/kg, ip by Von Frey test. In kind it is functional, organism-based. As to conditions: dose 2-50 mg/kg.
Assay [8] has as its system Mus musculus. Put plainly: Antinociception activity in mouse model assessed as reduction in thermal hypersensitivity at 2 to 50 mg/kg, ip by hot plate test. In kind it is functional, organism-based. As to conditions: dose 2-50 mg/kg.
For assay [9], the system named is Mus musculus. Nature of the assay: Anxiolytic activity in restraint stress induced anxiety mouse model assessed as total number of responses at 2 to 50 mg/kg, ip administered measured after 5 mins by plus maze test. The class given is functional, organism-based. As to conditions: dose 2-50 mg/kg.

For `CC(C)CCC[C@@H](C)[C@H]1CC[C@H]2[C@@H]3C(=O)C=C4C=CCC[C@]4(C)[C@H]3CC[C@]12C`, the Activity in [1] amounted to 14%; in [2] it was 56%; in assay [3], 4%; in assay [4], 33%. In addition, the IC50 in assay [5] was determined as 5.5 µM; in [6], 19.4 µM. For the same molecule, the outcome in the assay with Neuron, in the assay on Mus musculus [7] and in the assay on Mus musculus [8] was Active. Besides, the outcome in the assay on Mus musculus [9] was inactive.
